The NIST ThermoML archive (doi:10.1016/j.jct.2016.03.009)
± gives the expanded uncertainty stated by the source.

Details: Crystal 2; DSC

[Ag+].[S-2].[S-2].[Sb+3] [antimony(III) silver(I) sulfide]
Triple point temperature: 648.6 ± 2.1 K
